Where “and” joins values, the source holds several entries; their conditions need not be identical. Identical values can stand only once.

In test [1] the target is T1, COX-2 (Homo sapiens, UniProt P35354).
T1 construct: A 2.0 kb fragment containing the coding region of either human or murine COX-1 or human or murine COX-2; made in house; host or cells: SF9 insect cells (baculovirus, pVL1393)
T1 sequence (P35354 18-604): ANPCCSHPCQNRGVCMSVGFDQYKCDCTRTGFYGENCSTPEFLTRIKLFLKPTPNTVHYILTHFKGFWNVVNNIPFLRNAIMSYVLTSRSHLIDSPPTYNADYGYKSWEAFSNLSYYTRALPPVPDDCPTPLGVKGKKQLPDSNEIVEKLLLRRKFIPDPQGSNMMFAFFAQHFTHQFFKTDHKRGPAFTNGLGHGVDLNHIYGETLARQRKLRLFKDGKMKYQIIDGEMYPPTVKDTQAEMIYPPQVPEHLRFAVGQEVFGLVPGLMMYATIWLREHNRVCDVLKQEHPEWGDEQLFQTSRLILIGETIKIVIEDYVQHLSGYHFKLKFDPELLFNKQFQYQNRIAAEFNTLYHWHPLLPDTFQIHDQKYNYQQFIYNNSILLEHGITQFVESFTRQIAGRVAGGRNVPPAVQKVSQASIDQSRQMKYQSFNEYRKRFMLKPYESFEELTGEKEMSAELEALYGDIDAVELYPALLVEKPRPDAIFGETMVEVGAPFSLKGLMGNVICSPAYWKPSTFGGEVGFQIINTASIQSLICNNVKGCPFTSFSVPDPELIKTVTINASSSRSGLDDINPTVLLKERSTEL
Description: Assay for COX-2 activity (PGE2 formed, ELISA). The format is biochemical, human or murine. The conditions noted are these: human COX-2, standard assay, read-out: hCox-2 IC50. (An ELISA detects its analyte on a solid surface through an enzyme-linked reagent.)
Description: The COX-2 inhibition activity of the compounds of this invention illustrated in the Examples were determined by the following methods.
A 2.0 kb fragment containing the coding region of either human or murine COX-1 or human or murine COX-2 was cloned into a BamHl site of the baculovirus transfer vector pVL1393 (Invitrogen) to generate the baculovirus transfer vectors for COX-1 and COX-2 in a manner similar to the method of D.R. O'Reilly et al (Baculovirus Expression Vectors: A Laboratory Manual (1992)). Recombinant baculoviruses were isolated by transfecting 4 μg of baculovirus transfer vector DNA into SF9 insect cells (2×10^8) along with 200 ng of linearized baculovirus plasmid DNA by the calcium phosphate method. […] Recombinant viruses were purified by three rounds of plaque purification and high titer (10^7-10^8 pfu/mL) stocks of virus were prepared. For large scale production, SF9 insect cells were infected in 10 liter fermentors (0.5×10^6/mL) with the recombinant baculovirus stock such that the multiplicity of infection was 0.1. After 72 hours the cells were centrifuged and the cell pellet homogenized in Tris/Sucrose (50 mM: 25%, pH 8.0) containing 1% 3-[(3-cholamidopropyl)dimethylammonio]-1-propanesulfonate (CHAPS). The homogenate was centrifuged at 10,000×G for 30 minutes, and the resultant supernatant was stored at −80° C. before being assayed for COX activity.
COX activity was assayed as PGE2 formed/lg protein/time using an ELISA to detect the prostaglandin released. CHAPS-solubilized insect cell membranes containing the appropriate COX enzyme were incubated in a potassium phosphate buffer (50 mM, pH 8.0) containing epinephrine, phenol, and heme with the addition of arachidonic acid (10 μM). Compounds were pre-incubated with the enzyme for 10-20 minutes prior to the addition of arachidonic acid. […] The PGE2 formed was measured by standard ELISA technology (Cayman Chemical).

The target in test [2] is T1, COX-2. The test is described as follows: Modified assay for COX-2 activity (PGE2 formed, ELISA). It counts as biochemical, human or murine. The following applies: human COX-2, replicate tests on separate lines, read-out: hCox-2 Modified IC50.

A word on the IC50: it is the concentration at which inhibition is half-maximal. As to `Nc1c(Cl)cc(Oc2cccc3c2OC(C(F)(F)F)C(C(=O)O)=C3)c(F)c1Cl` (stereo not shown) [Example 25d, 8-(4-amino-3,5-dichloro-2-fuorophenoxy)-2-(trifluoromethyl)-2H-chromene-3-carboxylic acid], the IC50 on COX-2 [1] is above 33300 nM.
On the same count and under the same terms, under `CCCOc1c(Cl)cc(Cl)c2c1OC(C(F)(F)F)C(C(=O)O)=C2` (stereo not shown) [Example 23f, 5,7-dichloro-8-propoxy-2-(trifluoromethyl)-2H-chromene-3-carboxylic acid] stands above 500000 nM.
On to `O=C(O)C1=Cc2cc(Cl)c(Oc3ccc4c(c3)OCO4)cc2O[C@H]1C(F)(F)F` (single isomer, unassigned) [Example 958a], for which the half-inhibitory concentration (IC50) was 35.8 nM and ≤ 137 nM on COX-2 [1] (replicate tests on separate lines); 29.3 nM and ≤ 137 nM on COX-2 [2].

Values taken from patent US7259266B2, “Benzopyran compounds useful for treating inflammatory conditions” (Pharmacia Corporation, priority 2003, dated 2007).
